The record followed here is ChEMBL document CHEMBL1795257, “Synthesis of new opioid derivatives with a propellane skeleton and their pharmacology: part 1” (Bioorg Med Chem Lett, 2011).

pKi: −log10 of the molar value. Active and inactive are the calls of the source. No cut-off for these calls is given here.

Assay [1] is described as follows: Displacement of [3H]NTI from delta opioid receptor in guinea pig forebrain homogenate by scintillation counting. It counts as tissue-based, Cavia porcellus, Brain. (In general: Loss of bound radioactivity is the signal in a displacement assay; it reports binding, not function.)
In assay [2] the target is Mu-type opioid receptor (Cavia porcellus, UniProt P97266). Nature of the assay: Displacement of [3H]DAMGO from mu opioid receptor in guinea pig forebrain homogenate by scintillation counting. It counts as tissue-based, Brain.
Assay [3] deals with Kappa-type opioid receptor (Cavia porcellus, UniProt P41144). Nature of the assay: Displacement of [3H]U69593 from kappa opioid receptor in guinea pig cerebellum homogenate by scintillation counting. It counts as tissue-based.
For assay [4], the species on record is Cavia porcellus. Description: Selectivity ratio of Ki for delta opioid receptor in guinea pig forebrain homogenate to Ki for kappa opioid receptor in guinea pig cerebellum homogenate. The format is tissue-based.
In assay [5] the test system is Mus musculus. Nature of the assay: Antinociceptive activity in sc dosed mouse assessed as inhibition of acetic acid-induced writhing. It counts as functional. On the technique in general: Writhing tests count abdominal constrictions after an irritant is injected.
The test system of assay [6] is Mus musculus. Nature of the assay: Antinociceptive activity in sc dosed mouse assessed as inhibition of acetic acid-induced writhing in presence of kappa opioid antagonist nor-BNI. It counts as functional, organism-based.
Assay [7] has as its system Mus musculus. Description: Antinociceptive activity in sc dosed mouse assessed as inhibition of acetic acid-induced writhing in presence of mu opioid […] naloxone. The format is functional, organism-based.

Sequence of Mu-type opioid receptor (P97266 whole entry): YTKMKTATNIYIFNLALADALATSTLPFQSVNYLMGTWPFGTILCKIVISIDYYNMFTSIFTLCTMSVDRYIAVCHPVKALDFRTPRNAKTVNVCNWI
Sequence of Kappa-type opioid receptor (P41144 whole entry): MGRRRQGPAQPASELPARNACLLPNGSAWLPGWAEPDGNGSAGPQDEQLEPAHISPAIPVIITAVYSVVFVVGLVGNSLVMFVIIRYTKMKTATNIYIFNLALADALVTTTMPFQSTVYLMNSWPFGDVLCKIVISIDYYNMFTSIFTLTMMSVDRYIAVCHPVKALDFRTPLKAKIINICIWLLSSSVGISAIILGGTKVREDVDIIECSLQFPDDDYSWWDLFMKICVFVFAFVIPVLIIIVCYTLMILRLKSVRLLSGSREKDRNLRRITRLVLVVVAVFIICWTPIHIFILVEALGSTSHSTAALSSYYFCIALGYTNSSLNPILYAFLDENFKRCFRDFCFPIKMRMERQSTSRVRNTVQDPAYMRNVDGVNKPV

The pKi is −log10 of the Ki, conventionally taken in molar units. Read a high pKi as a small Ki. As to `O=C1CCC23Cc4ccc(O)cc4C2(CCN(CC2(O)CC2)C3)C1` (centres undefined), the pKi is 6.30 in assay [1], 7.11 in assay [2] and 7.66 in assay [3]. The Ratio Ki in assay [4] came out at 23.

As for `CCC12CCN(CC3(O)CC3)[C@H](Cc3ccc(O)cc31)C2(C)C`, the pKi in assay [1] was 9.05; in assay [2], 9.70.

Turning to `O=C1CC23CCN(CC4CC4)C(Cc4ccc(O)cc42)C32CCC1O2` (centres undefined), in assay [4], the Ratio Ki was determined as 30.

For the compound `O=C1CC[C@@]2(O)[C@H]3Cc4ccc(O)cc4[C@@]2(CCN3CC2CC2)C1`, the pKi was 8.74 in assay [1], 9.85 in assay [2] and 10.42 in assay [3]. In assay [4], the Ratio Ki worked out at 48.

With `O=C1CC[C@@]2(O)[C@H]3Cc4ccc(O)c5c4[C@@]2(CCN3CC2CC2)[C@H]1O5`, the Ratio Ki in assay [4] came to 56.

In the case of `Oc1ccc2c3c1OC1C4(O)CC[C@@]5(OC4)[C@@H](C2)N(CC2CC2)CC[C@]315` (some centres undefined), the results for the pKi in assay [1], in assay [2] and in assay [3] were 7.99, 9.80 and 9.47, respectively. For the same compound, in assay [4], the Ratio Ki is 30.

For the compound `CN1CCC23CC(=O)CCC2(Cc2ccc(O)cc23)C1` (centres undefined), the pKi in assay [1] is 6.36; in assay [2] it was 8.44; in assay [3], 6.59. Moreover, the Ratio Ki in assay [4] was 1.7.

With `OCC12CC[C@@]3(O1)[C@H]1Cc4ccc(O)cc4[C@@]3(CCN1CC1CC1)C2`, the Ratio Ki in assay [4] came to 35.

In turn, `CN1CC[C@]23c4c5ccc(O)c4O[C@H]2C(=O)CC[C@@]3(O)[C@H]1C5` [OXYMORPHONE] had a pKi in assay [1] of 7.37.

Regarding `CN1CC[C@]23c4c5ccc(O)c4O[C@H]2[C@@H](O)C=C[C@H]3[C@H]1C5`, the result in assay [5] was Active.

Turning to `CC(C)=CCN1CC[C@@]2(C)c3cc(O)ccc3C[C@@H]1[C@@H]2C`, the pKi is 7.64 in assay [1], 8.34 in assay [2] and 8.44 in assay [3]. Further, the Ratio Ki in assay [4] was found to be 6.4.

A word on the ED50: it is the dose that gives a 50% effect, or the effect in half of the subjects. `O=C1CCC23Cc4ccc(O)cc4C2(CCN(CC2CC2)C3)C1` (centres undefined): the outcome in assay [6] and in assay [7] was inactive. Further, the pKi was 6.35 in assay [1], 7.24 in assay [2] and 7.76 in assay [3]. In assay [5], the ED50 came to 0.86 mg/kg. The Ratio Ki in assay [4] was 26.
